Data published in the NIST ThermoML archive (doi:10.1016/j.fluid.2004.11.019).
Numbers after ± are expanded uncertainties.

Settings: Liquid

Q: Which mass density (298.15 K, 100 kPa) does the source give for `CCO` [ethanol] here?
A: 785.7 ± 0.4 kg/m3

Q: What about the mass density (298.15 K, 10000 kPa) of the same compound?
A: 794 ± 0.4 kg/m3

Q: What about the mass density (298.15 K, 20000 kPa) of the same compound?
A: 801.9 ± 0.6 kg/m3

Q: And the mass density (298.15 K, 30000 kPa)?
A: 808.9 ± 0.7 kg/m3

Q: And the mass density (298.15 K, 40000 kPa)?
A: 815.7 ± 0.8 kg/m3

Q: What about the mass density (323.15 K, 100 kPa) of the same compound?
A: 763.7 ± 0.4 kg/m3

Q: And the mass density (323.15 K, 10000 kPa)?
A: 773.4 ± 0.5 kg/m3

Q: And the mass density (323.15 K, 20000 kPa)?
A: 782.3 ± 0.6 kg/m3

Q: And the mass density (323.15 K, 30000 kPa)?
A: 790.3 ± 0.7 kg/m3

Q: What about the mass density (323.15 K, 40000 kPa) of the same compound?
A: 797.7 ± 0.9 kg/m3

Q: And the mass density (348.15 K, 100 kPa)?
A: 739.4 ± 0.4 kg/m3

Q: What about the mass density (348.15 K, 10000 kPa) of the same compound?
A: 751.2 ± 0.5 kg/m3

Q: And the mass density (348.15 K, 20000 kPa)?
A: 761.2 ± 0.6 kg/m3

Q: What about the mass density (348.15 K, 30000 kPa) of the same compound?
A: 770.3 ± 0.8 kg/m3

Q: What about the mass density (348.15 K, 40000 kPa) of the same compound?
A: 778.6 ± 0.9 kg/m3
